This is an account of results in ChEMBL document CHEMBL6115000, “Discovery of a first-in-class PROTAC degrader of histone lysine demethylase KDM4” (Eur J Med Chem, 2025).

Structures are written as SMILES.

In experiment [1] the target is T1, von Hippel-Lindau disease tumor suppressor/Lysine-specific demethylase 4A (Homo sapiens, UniProt O75164+P40337). In words: PROTAC activity at VHL/KDM4A in human KYSE-150 cells assessed as induction of KDM4A degradation at 0.1 uM incubated for 12 hrs by Western blot analysis relative to control. Type of experiment: cell-based. The settings on record: KYSE-150 cell line. On the technique in general: In western blotting, separated proteins are transferred to a membrane and probed.

Experiment [2] has as its target T1, von Hippel-Lindau disease tumor suppressor/Lysine-specific demethylase 4A. In words: PROTAC activity at VHL/KDM4A in human KYSE-150 cells assessed as induction of KDM4A degradation at 1 uM incubated for 12 hrs by Western blot analysis relative to control. The settings on record: KYSE-150 cell line. Type of experiment: cell-based.

T1 sequence (O75164 2-1064 limits assumed): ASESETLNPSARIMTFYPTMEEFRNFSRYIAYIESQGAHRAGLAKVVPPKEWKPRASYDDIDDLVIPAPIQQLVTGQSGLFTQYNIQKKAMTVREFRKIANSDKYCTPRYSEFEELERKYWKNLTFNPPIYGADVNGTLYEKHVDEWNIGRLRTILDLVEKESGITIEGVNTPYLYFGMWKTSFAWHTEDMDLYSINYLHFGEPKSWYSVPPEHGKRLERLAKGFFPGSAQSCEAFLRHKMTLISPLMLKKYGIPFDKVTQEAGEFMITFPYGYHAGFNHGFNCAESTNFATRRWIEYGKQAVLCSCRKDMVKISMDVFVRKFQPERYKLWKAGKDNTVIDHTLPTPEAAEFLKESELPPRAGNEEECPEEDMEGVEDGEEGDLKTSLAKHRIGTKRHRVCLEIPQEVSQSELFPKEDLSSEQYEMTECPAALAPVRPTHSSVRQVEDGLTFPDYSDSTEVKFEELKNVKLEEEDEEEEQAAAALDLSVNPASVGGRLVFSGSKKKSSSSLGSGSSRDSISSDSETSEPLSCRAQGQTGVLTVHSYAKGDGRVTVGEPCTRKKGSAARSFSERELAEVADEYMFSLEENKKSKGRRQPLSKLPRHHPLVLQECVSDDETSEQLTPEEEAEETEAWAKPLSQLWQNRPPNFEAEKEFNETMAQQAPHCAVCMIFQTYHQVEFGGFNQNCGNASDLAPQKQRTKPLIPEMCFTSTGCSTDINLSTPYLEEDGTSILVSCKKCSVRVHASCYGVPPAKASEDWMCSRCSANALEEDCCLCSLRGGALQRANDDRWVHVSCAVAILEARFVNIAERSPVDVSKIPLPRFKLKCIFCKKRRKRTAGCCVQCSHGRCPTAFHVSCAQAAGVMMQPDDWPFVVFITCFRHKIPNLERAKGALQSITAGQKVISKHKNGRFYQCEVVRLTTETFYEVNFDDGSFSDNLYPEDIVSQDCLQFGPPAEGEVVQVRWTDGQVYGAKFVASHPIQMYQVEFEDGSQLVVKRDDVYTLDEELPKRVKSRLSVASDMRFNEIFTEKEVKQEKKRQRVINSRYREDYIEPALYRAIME
T1 sequence (P40337 whole entry partner): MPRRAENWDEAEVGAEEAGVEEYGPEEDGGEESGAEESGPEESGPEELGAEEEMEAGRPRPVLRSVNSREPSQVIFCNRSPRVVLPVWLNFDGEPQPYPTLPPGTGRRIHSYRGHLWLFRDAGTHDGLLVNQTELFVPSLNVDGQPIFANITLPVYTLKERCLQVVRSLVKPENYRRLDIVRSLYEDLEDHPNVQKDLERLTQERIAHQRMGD

Consider `Cc1ncsc1-c1ccc([C@H](C)NC(=O)[C@@H]2C[C@@H](O)CN2C(=O)[C@@H](NC(=O)CCCCCCCCCCCOc2ccc(N(C)c3ccc4c(c3)OCC[C@H]4CNc3cnccc3C(=O)O)cc2)C(C)(C)C)cc1`, for which the Activity came out at 47.1% in experiment [1] and 58.5% in experiment [2].

For the molecule `Cc1ncsc1-c1ccc([C@H](C)NC(=O)[C@@H]2C[C@@H](O)CN2C(=O)[C@@H](NC(=O)CCCCCOc2ccc(N(C)c3ccc4c(c3)OCC[C@H]4CNc3cnccc3C(=O)O)cc2)C(C)(C)C)cc1`, the Activity was found to be 15.9% in experiment [1] and 14.1% in experiment [2].

For the molecule `Cc1ncsc1-c1ccc([C@H](C)NC(=O)[C@@H]2C[C@@H](O)CN2C(=O)[C@@H](NC(=O)CCCCCCCCCCOc2ccc(N(C)c3ccc4c(c3)OCC[C@H]4CNc3cnccc3C(=O)O)cc2)C(C)(C)C)cc1`, the Activity in experiment [1] was determined as 36.7%; in experiment [2], 58.6%.

With `Cc1ncsc1-c1ccc([C@H](C)NC(=O)[C@@H]2C[C@@H](O)CN2C(=O)[C@@H](NC(=O)c2ccc(C#CCCCCOc3ccc(N(C)c4ccc5c(c4)OCC[C@H]5CNc4cnccc4C(=O)O)cc3)cc2)C(C)(C)C)cc1`, the Activity in experiment [1] is 38.7%; in experiment [2], 47.3%.

For the molecule `Cc1ncsc1-c1ccc([C@H](C)NC(=O)[C@@H]2C[C@@H](O)CN2C(=O)[C@@H](NC(=O)CCCCCCCCOc2ccc(N(C)c3ccc4c(c3)OCC[C@H]4CNc3cnccc3C(=O)O)cc2)C(C)(C)C)cc1`, the Activity in experiment [1] was determined as 34.6%; in experiment [2] it was 53.9%.

On to `Cc1ncsc1-c1ccc([C@H](C)NC(=O)[C@@H]2C[C@@H](O)CN2C(=O)[C@@H](NC(=O)c2ccc(CCCCCCOc3ccc(N(C)c4ccc5c(c4)OCC[C@H]5CNc4cnccc4C(=O)O)cc3)cc2)C(C)(C)C)cc1`, for which the Activity in experiment [1] was determined as 52.4%; in experiment [2], 54.5%.

Turning to `Cc1ncsc1-c1ccc([C@H](C)NC(=O)[C@@H]2C[C@@H](O)CN2C(=O)[C@@H](NC(=O)CCCCCCOc2ccc(N(C)c3ccc4c(c3)OCC[C@H]4CNc3cnccc3C(=O)O)cc2)C(C)(C)C)cc1`, the Activity in experiment [1] was found to be 48.5%; in experiment [2] it was 57.9%.

Take `Cc1ncsc1-c1ccc([C@H](C)NC(=O)[C@@H]2C[C@@H](O)CN2C(=O)[C@@H](NC(=O)CCCCCCCOc2cccc(N(C)c3ccc4c(c3)OCC[C@H]4CNc3cnccc3C(=O)O)c2)C(C)(C)C)cc1`: the Activity was -0.2% in experiment [1] and 41.1% in experiment [2].

For `Cc1ncsc1-c1ccc([C@H](C)NC(=O)[C@@H]2C[C@@H](O)CN2C(=O)[C@@H](NC(=O)C2CCN(C(=O)CCCCCOc3ccc(N(C)c4ccc5c(c4)OCC[C@H]5CNc4cnccc4C(=O)O)cc3)CC2)C(C)(C)C)cc1`, the Activity was 19.5% in experiment [1] and 12% in experiment [2].

For the molecule `Cc1ncsc1-c1ccc([C@H](C)NC(=O)[C@@H]2C[C@@H](O)CN2C(=O)[C@@H](NC(=O)c2ccc(CCCCOc3ccc(N(C)c4ccc5c(c4)OCC[C@H]5CNc4cnccc4C(=O)O)cc3)cc2)C(C)(C)C)cc1`, the values for the Activity in experiment [1] and in experiment [2] were 30.5% and 43.9%, respectively.

As for `Cc1ncsc1-c1ccc([C@H](C)NC(=O)[C@@H]2C[C@@H](O)CN2C(=O)[C@@H](NC(=O)CCOCCOCCOCCOc2ccc(N(C)c3ccc4c(c3)OCC[C@H]4CNc3cnccc3C(=O)O)cc2)C(C)(C)C)cc1`, the Activity in experiment [1] is -2.5%; in experiment [2] it was 15.5%.

With `Cc1ncsc1-c1ccc([C@H](C)NC(=O)[C@@H]2C[C@@H](O)CN2C(=O)[C@@H](NC(=O)c2ccc(CCCCCOc3ccc(N(C)c4ccc5c(c4)OCC[C@H]5CNc4cnccc4C(=O)O)cc3)cc2)C(C)(C)C)cc1`, the results for the Activity in experiment [1] and in experiment [2] were 42.7% and 63.1%, respectively.

Take `Cc1ncsc1-c1ccc([C@H](C)NC(=O)[C@@H]2C[C@@H](O)CN2C(=O)[C@@H](NC(=O)CCOCCOCCOc2ccc(N(C)c3ccc4c(c3)OCC[C@H]4CNc3cnccc3C(=O)O)cc2)C(C)(C)C)cc1`: the values for the Activity in experiment [1] and in experiment [2] were 6.5% and 15.5%, respectively.

Regarding `Cc1ncsc1-c1ccc([C@H](C)NC(=O)[C@@H]2C[C@@H](O)CN2C(=O)[C@@H](NC(=O)CCCCCCCOc2ccc(N(C)c3ccc4c(c3)OCC[C@H]4CNc3cnccc3C(=O)O)cc2)C(C)(C)C)cc1`, the Activity in experiment [1] was found to be 37.1%; in experiment [2] it was 57.2%.
